The values below come from patent US8546401B2, “5,6-disubstituted oxindole-derivatives and use thereof for treating vasopressin-dependent diseases” (AbbVie Deutschland GmbH & Co. KG, priority 2007, dated 2013).

The pKi is the negative decadic logarithm of the Ki, by convention in mol/L.

For one test, the target named is T1, human oxytocin receptors (Homo sapiens, UniProt P30559).
T1 construct: expressed in transfected cells; host or cells: HEK-293, transient expression; lysed and homogenized cells
T1 sequence (P30559 1-389): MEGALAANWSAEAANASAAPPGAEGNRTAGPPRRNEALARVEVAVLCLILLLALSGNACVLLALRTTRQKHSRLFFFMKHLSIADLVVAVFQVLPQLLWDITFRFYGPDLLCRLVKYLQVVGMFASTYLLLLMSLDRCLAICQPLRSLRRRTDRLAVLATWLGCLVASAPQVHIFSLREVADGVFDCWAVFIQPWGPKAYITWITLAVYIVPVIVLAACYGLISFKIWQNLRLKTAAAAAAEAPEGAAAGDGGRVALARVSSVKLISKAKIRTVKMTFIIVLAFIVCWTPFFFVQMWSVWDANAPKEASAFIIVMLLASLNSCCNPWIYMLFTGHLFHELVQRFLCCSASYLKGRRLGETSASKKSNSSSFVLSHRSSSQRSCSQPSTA
The test can be described thus: Oxytocin receptor binding assay. To be noted: selectivity quotient. The procedure, abridged:
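Membranes from HEK-293 cells transiently expressing human oxytocin receptor, incubated with 3-4 nM ^3H-oxytocin in 50 mM Tris, 10 mM MgCl2, 0.1% BSA, pH 7.4; nonspecific binding with 10^−6 M oxytocin. Filtration and scintillation counting; Ki by nonlinear regression using Kd 7.6 nM.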

The target of test [1] is T2, human vasopressin V1b receptor (Homo sapiens, UniProt P47901).
T2 construct: expressed in transfected cells; host or cells: CHO-K1 (cell line hV1b_3H2_CHO), membrane preparation
T2 sequence (P47901 1-424): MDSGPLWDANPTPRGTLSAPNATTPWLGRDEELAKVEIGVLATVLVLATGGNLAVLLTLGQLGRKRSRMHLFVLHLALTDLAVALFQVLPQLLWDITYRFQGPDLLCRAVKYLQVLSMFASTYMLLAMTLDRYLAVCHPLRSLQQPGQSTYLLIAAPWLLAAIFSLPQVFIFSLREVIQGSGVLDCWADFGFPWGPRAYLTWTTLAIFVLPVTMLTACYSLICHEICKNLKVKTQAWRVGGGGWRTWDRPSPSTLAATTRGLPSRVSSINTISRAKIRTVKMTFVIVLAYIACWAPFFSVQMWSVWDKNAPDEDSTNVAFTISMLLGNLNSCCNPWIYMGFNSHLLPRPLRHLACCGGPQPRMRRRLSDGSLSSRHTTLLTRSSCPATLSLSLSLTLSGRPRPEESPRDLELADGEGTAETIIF
The test can be described thus: Vasopressin V1b receptor binding assay. To be noted: CHO-K1 membranes, 3H-AVP displacement. The procedure, abridged:
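Membranes (50 μg/ml protein) from CHO-K1 cells stably expressing human V1b were incubated with 1.5 nM ^3H-AVP in 50 mM Tris, 10 mM MgCl2, 0.1% BSA, pH 7.4, for 60 min at room temperature, 2% DMSO final. Bound ligand measured after filtration; Ki derived by nonlinear regression using Kd 0.4 nM.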

Test [2] concerns the target T3, human vasopressin V1a receptor (Homo sapiens, UniProt P37288).
T3 construct: expressed in transfected cells; host or cells: CHO-K1 (cell line hV1a_5_CHO), membrane preparation
The experiment in a line: Vasopressin V1a receptor binding assay. To be noted: selectivity quotient, human receptors. The gist of the method: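 Membranes from CHO-K1 cells stably expressing the receptor (hV1a_5_CHO; 20 μg/ml protein) were incubated 60 min at room temperature with 0.04 nM ^125I-AVP and increasing test compound in 50 mM Tris, 10 mM MgCl2, 0.1% BSA, pH 7.4. Nonspecific binding was defined with 1 μM AVP and read by filtration and scintillation. Ki came from nonlinear regression using Kd 1.33 nM.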

pKi: −log10 of the molar value.

T3 sequence (P37288 whole entry): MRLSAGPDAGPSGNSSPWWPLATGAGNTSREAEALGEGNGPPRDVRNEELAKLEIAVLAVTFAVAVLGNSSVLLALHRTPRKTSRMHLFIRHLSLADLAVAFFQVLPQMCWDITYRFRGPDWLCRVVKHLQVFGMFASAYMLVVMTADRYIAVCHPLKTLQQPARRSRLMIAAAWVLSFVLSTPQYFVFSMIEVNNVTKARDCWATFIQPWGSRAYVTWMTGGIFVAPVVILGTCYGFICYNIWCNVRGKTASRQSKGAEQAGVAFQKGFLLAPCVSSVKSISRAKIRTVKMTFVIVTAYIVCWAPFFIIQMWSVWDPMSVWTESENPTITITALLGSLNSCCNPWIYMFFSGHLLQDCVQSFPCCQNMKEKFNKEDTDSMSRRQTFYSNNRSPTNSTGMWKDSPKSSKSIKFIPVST

For the compound `CCOc1ncccc1C1(NC(=O)N2CCC(C3CCN(C)CC3)CC2)C(=O)N(S(=O)(=O)c2ccc(OC)cc2OC)c2cc(F)c(Cl)cc21` (stereo not drawn) [Example 26, 1′-Methyl[4,4′]bipiperidinyl-1-[5-chloro-1-(2,4-dimethoxyphenylsulfonyl)-3-(2-ethoxy-pyridin-3-yl)-6-fluoro-2-oxo-2,3-dihydro-1H-indol-3-yl]carboxamide], the “Ki(h − OT)/Ki(h − V1b)*” value at human oxytocin receptors is reported as “+++ (>75)”. This compound also showed a negative-log Ki (pKi) in test [1] above 9.00. For the same compound, the “Ki(h − V1a)/Ki(h − V1b)*” value in test [2] was “+ (10-<25)”.

For `CCOc1ncccc1C1(NC(=O)N2CCN(C3CCN(C)CC3)CC2)C(=O)N(S(=O)(=O)c2ccc(OC)cc2OC)c2cc(F)c(F)cc21` (stereo not drawn) [Example 31, 4-(1-Methylpiperidin-4-yl)piperazine-1-[1-(2,4-dimethoxyphenylsulfonyl)-3-(2-ethoxy-pyridin-3-yl)-5,6-difluoro-2-oxo-2,3-dihydro-1H-indol-3-yl]carboxamide], the “Ki(h − OT)/Ki(h − V1b)*” value at human oxytocin receptors is recorded as “+ (10-<25)”. For the same compound, in test [1], the negative-log Ki (pKi) was 7.00 to 8.00. Besides, the “Ki(h − V1a)/Ki(h − V1b)*” value in test [2] is “+++ (>75)”.

Take `CCOc1ncccc1C1(NC(=O)N2CCN(C3CCN(CC)CC3)CC2)C(=O)N(S(=O)(=O)c2ccc(OC)cc2OC)c2cc(F)c(F)cc21` (stereo not drawn) [Example 33, 4-(1-Ethylpiperidin-4-yl)piperazine-1-[1-(2,4-dimethoxyphenylsulfonyl)-3-(2-ethoxy-pyridin-3-yl)-5,6-difluoro-2-oxo-2,3-dihydro-1H-indol-3-yl]carboxamide]: the “Ki(h − OT)/Ki(h − V1b)*” value on human oxytocin receptors was “+++ (>75)”. In addition, the negative-log Ki (pKi) in test [1] was 8.00 to 9.00. For the same compound, in test [2], the “Ki(h − V1a)/Ki(h − V1b)*” value was “+++ (>75)”.

For `CCOc1ncccc1C1(NC(=O)N2CCC(N3CCN(C)CC3)CC2)C(=O)N(S(=O)(=O)c2ccc(OC)cc2OC)c2cc(F)c(F)cc21` (stereo not drawn) [Example 35, 4-(4-Methylpiperazin-1-yl)piperidine-1-[1-(2,4-dimethoxyphenylsulfonyl)-3-(2-ethoxy-pyridin-3-yl)-5,6-difluoro-2-oxo-2,3-dihydro-1H-indol-3-yl]carboxamide], the “Ki(h − OT)/Ki(h − V1b)*” value on human oxytocin receptors is “+ (10-<25)”. In test [1], the pKi is 8.00 to 9.00. Besides, the “Ki(h − V1a)/Ki(h − V1b)*” value in test [2] is on record as “+ (10-<25)”.

For the compound `CCOc1ncccc1C1(OC(=O)N2CCN(C3CCN(C)CC3)CC2)C(=O)N(S(=O)(=O)c2ccc(OC)cc2OC)c2cc(F)c(C#N)cc21` (stereo not drawn) [Example 38, 5-Cyano-1-(2,4-dimethoxybenzenesulfonyl)-3-(2-ethoxypyridin-3-yl)-6-fluoro-2-oxo-2,3-dihydro-1H-indol-3-yl 4-(1-methylpiperidin-4-yl)piperazine-1-carboxylate], the “Ki(h − OT)/Ki(h − V1b)*” value at human oxytocin receptors is recorded as “+++ (>75)”. This compound gave a pKi in test [1] above 9.00. Moreover, in test [2], the “Ki(h − V1a)/Ki(h − V1b)*” value is given as “+++ (>75)”.

On to `CCOc1ncccc1C1(OC(=O)N2CCN(C3CCN(C)CC3)CC2)C(=O)N(S(=O)(=O)c2ccc(OC)cc2)c2cc(F)c(C#N)cc21` (stereo not drawn) [Example 39, 5-Cyano-3-(2-ethoxypyridin-3-yl)-6-fluoro-1-(4-methoxyphenylsulfonyl)-2-oxo-2,3-dihydro-1H-indol-3-yl 4-(1-methylpiperidin-4-yl)piperazine-1-carboxylate], for which the “Ki(h − OT)/Ki(h − V1b)*” value at human oxytocin receptors is given as “+++ (>75)”. In test [1], this compound showed a pKi above 9.00. The “Ki(h − V1a)/Ki(h − V1b)*” value in test [2] was “++ (25-75)”.

As to `CCOc1ncccc1C1(OC(=O)N2CCN(C3CCN(C)CC3)CC2)C(=O)N(S(=O)(=O)c2ccccc2)c2cc(F)c(C#N)cc21` (stereo not drawn) [Example 40, 1-Phenylsulfonyl-5-cyano-3-(2-ethoxypyridin-3-yl)-6-fluoro-2-oxo-2,3-dihydro-1H-indol-3-yl 4-(1-methylpiperidin-4-yl)piperazine-1-carboxylate], the “Ki(h − OT)/Ki(h − V1b)*” value at human oxytocin receptors is “+++ (>75)”. This compound also had a pKi in test [1] of 8.00 to 9.00. The “Ki(h − V1a)/Ki(h − V1b)*” value in test [2] is given as “+ (10-<25)”.

`CCOc1ncccc1C1(OC(=O)N2CCN(C3CCN(C)CC3)CC2)C(=O)N(S(=O)(=O)c2ccc(OC)cc2OC)c2cc(F)c(Cl)cc21` (stereo not drawn) [Example 41, 5-Chloro-1-(2,4-dimethoxyphenylsulfonyl)-3-(2-ethoxypyridin-3-yl)-6-fluoro-2-oxo-2,3-dihydro-1H-indol-3-yl 4-(1-methylpiperidin-4-yl)piperazine-1-carboxylate]: at human oxytocin receptors, the “Ki(h − OT)/Ki(h − V1b)*” value is recorded as “+ (10-<25)”. The pKi in test [1] was above 9.00. The “Ki(h − V1a)/Ki(h − V1b)*” value in test [2] is on record as “+ (10-<25)”.

For the compound `CCOc1ncccc1C1(OC(=O)N2CCN(C3CCN(C)CC3)CC2)C(=O)N(S(=O)(=O)c2ccc(OC)cc2)c2cc(F)c(Cl)cc21` (stereo not drawn) [Example 42, 5-Chloro-3-(2-ethoxypyridin-3-yl)-6-fluoro-1-(4-methoxyphenylsulfonyl)-2-oxo-2,3-dihydro-1H-indol-3-yl 4-(1-methylpiperidin-4-yl)piperazine-1-carboxylate], the “Ki(h − OT)/Ki(h − V1b)*” value on human oxytocin receptors is given as “+ (10-<25)”. Moreover, in test [1], the pKi was above 9.00. Further, the “Ki(h − V1a)/Ki(h − V1b)*” value in test [2] is “+ (10-<25)”.

With `CCOc1ncccc1C1(OC(=O)N2CCN(C3CCN(C)CC3)CC2)C(=O)N(S(=O)(=O)c2ccccc2OC)c2cc(F)c(Cl)cc21` (stereo not drawn) [Example 43, 5-Chloro-3-(2-ethoxypyridin-3-yl)-6-fluoro-1-(2-methoxyphenylsulfonyl)-2-oxo-2,3-dihydro-1H-indol-3-yl 4-(1-methylpiperidin-4-yl)piperazine-1-carboxylate], the “Ki(h − OT)/Ki(h − V1b)*” value on human oxytocin receptors was “+++ (>75)”. Further, the pKi in test [1] was above 9.00. Also, the “Ki(h − V1a)/Ki(h − V1b)*” value in test [2] was “++ (25-75)”.

As for `CCOc1ncccc1C1(OC(=O)N2CCN(C3CCN(C)CC3)CC2)C(=O)N(S(=O)(=O)c2ccccc2)c2cc(F)c(Cl)cc21` (stereo not drawn) [Example 45, 1-Phenylsulfonyl-5-chloro-3-(2-ethoxypyridin-3-yl)-6-fluoro-2-oxo-2,3-dihydro-1H-indol-3-yl 4-(1-methylpiperidin-4-yl)piperazine-1-carboxylate], the “Ki(h − OT)/Ki(h − V1b)*” value at human oxytocin receptors is listed as “+++ (>75)”. Moreover, the pKi in test [1] is 8.00 to 9.00. In addition, the “Ki(h − V1a)/Ki(h − V1b)*” value in test [2] is on record as “+ (10-<25)”.

Take `CCOc1ncccc1C1(OC(=O)N2CCN(C3CCN(C)CC3)CC2)C(=O)N(S(=O)(=O)c2ccc(OC)cc2OC)c2cc(Cl)c(F)cc21` (stereo not drawn) [Example 46, 6-Chloro-1-(2,4-dimethoxyphenylsulfonyl)-3-(2-ethoxypyridin-3-yl)-5-fluoro-2-oxo-2,3-dihydro-1H-indol-3-yl 4-(1-methylpiperidin-4-yl)piperazine-1-carboxylate]: the “Ki(h − OT)/Ki(h − V1b)*” value on human oxytocin receptors is “+ (10-<25)”. For the same compound, in test [1], the pKi was 8.00 to 9.00. In addition, the “Ki(h − V1a)/Ki(h − V1b)*” value in test [2] is on record as “++ (25-75)”.

As for `CCOc1ncccc1C1(OC(=O)N2CCN(C3CCN(C)CC3)CC2)C(=O)N(S(=O)(=O)c2ccccc2OC)c2cc(Cl)c(F)cc21` (stereo not drawn) [Example 50, 6-Chloro-3-(2-ethoxypyridin-3-yl)-5-fluoro-1-(2-methoxyphenylsulfonyl)-2-oxo-2,3-dihydro-1H-indol-3-yl 4-(1-methylpiperidin-4-yl)piperazine-1-carboxylate], the “Ki(h − OT)/Ki(h − V1b)*” value on human oxytocin receptors is reported as “++ (25-75)”. In addition, the pKi in test [1] is 7.00 to 8.00. Besides, the “Ki(h − V1a)/Ki(h − V1b)*” value in test [2] is “+ (10-<25)”.

Consider `CCOc1ncccc1C1(OC(=O)N2CCN(C3CCN(C)CC3)CC2)C(=O)N(S(=O)(=O)c2ccc(OC)cc2OC)c2cc(F)c(F)cc21` (stereo not drawn) [Example 51, 1-(2,4-dimethoxyphenylsulfonyl)-3-(2-ethoxypyridin-3-yl)-5,6-difluoro-2-oxo-2,3-dihydro-1H-indol-3-yl 4-(1-methylpiperidin-4-yl)piperazine-1-carboxylate], for which the “Ki(h − OT)/Ki(h − V1b)*” value on human oxytocin receptors is “++ (25-75)”. Moreover, the negative logarithm of the Ki (pKi) in test [1] was 8.00 to 9.00. The “Ki(h − V1a)/Ki(h − V1b)*” value in test [2] is reported as “+++ (>75)”.

On to `CCOc1ncccc1C1(OC(=O)N2CCN(C3CCN(C)CC3)CC2)C(=O)N(S(=O)(=O)c2ccc(OC)cc2)c2cc(F)c(F)cc21` (stereo not drawn) [Example 52, 3-(2-Ethoxypyridin-3-yl)-5,6-difluoro-1-(4-methoxyphenylsulfonyl)-2-oxo-2,3-dihydro-1H-indol-3-yl 4-(1-methylpiperidin-4-yl)piperazine-1-carboxylate], for which, on human oxytocin receptors, the “Ki(h − OT)/Ki(h − V1b)*” value is reported as “+ (10-<25)”. This compound also showed a negative logarithm of the Ki (pKi) in test [1] of 8.00 to 9.00. The “Ki(h − V1a)/Ki(h − V1b)*” value in test [2] is “++ (25-75)”.
